In ChEMBL document CHEMBL1145872, “Synthesis and in vitro efficacy of acid-sensitive poly(ethylene glycol) paclitaxel conjugates” (Bioorg Med Chem Lett, 2003):

How the values were obtained:
Format in all cases: functional, cell-based
MCF7 = test: In vitro inhibitory concentration of compound against human cancer MACL MCF-7 cell line was determined
RXF 944 = test: In vitro inhibitory concentration of compound against human cancer RXF 944 cell line was determined
MEXF514 = test: In vitro inhibitory concentration of compound against human cancer MEXF 514 cell line was determined

IC50 (MCF7) | IC50 (RXF 944) | IC50 (MEXF514) | Structure (SMILES)
130 nM | 90 nM | 220 nM | CC(=O)O[C@H]1C(=O)[C@@]2(C)C([C@H](OC(=O)c3ccccc3)C3(O)C[C@H](OC(=O)[C@H](OC(=O)c4ccc(C(C)=O)cc4)[C@@H](NC(=O)c4ccccc4)c4ccccc4)C(C)=C1C3(C)C)[C@]1(OC(C)=O)COC1C[C@@H]2O (stereo not given in full)
– | 50 nM | 1030 nM | CC(=O)O[C@H]1C(=O)[C@@]2(C)[C@H]([C@H](OC(=O)c3ccccc3)[C@]3(O)C[C@H](OC(=O)[C@H](O)[C@@H](NC(=O)c4ccccc4)c4ccccc4)C(C)=C1C3(C)C)[C@]1(OC(C)=O)CO[C@@H]1C[C@@H]2O [PACLITAXEL]
